Laboratory results from patent US12084472B2 (Ardelyx, Inc., priority 2015, dated 2024).

What follows are compounds tested against T1, human TGR5 (Homo sapiens, UniProt Q8TDU6) (assay: Cell-based TGR5 assay (cAMP generation, HTRF)). Conditions: HEK293 cells stably transfected with human TGR5; cAMP by HTRF; 30 minutes at 37° C.; read-out: pEC50 Human TGR5 (converted).
T1 construct: expressed in transfected cells; host or cells: HEK293
T1 sequence (Q8TDU6 1-330): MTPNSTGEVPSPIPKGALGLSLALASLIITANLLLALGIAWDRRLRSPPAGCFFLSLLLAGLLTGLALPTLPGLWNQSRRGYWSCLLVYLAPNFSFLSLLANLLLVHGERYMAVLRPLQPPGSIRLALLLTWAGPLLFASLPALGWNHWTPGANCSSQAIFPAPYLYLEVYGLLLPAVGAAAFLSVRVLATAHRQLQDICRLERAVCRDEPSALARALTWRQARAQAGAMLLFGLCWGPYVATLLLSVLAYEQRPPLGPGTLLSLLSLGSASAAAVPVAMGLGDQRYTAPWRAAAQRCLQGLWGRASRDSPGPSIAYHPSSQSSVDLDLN
Summary of the method: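 Read-out was HTRF detection of cAMP, converted to concentration via a standard curve and fitted (3-parameter logistic) for pEC50 and maximal response. Agonist stimulation used HEK293 cells stably transfected with human TGR5, incubated 30 min at 37° C in IBMX-containing buffer at 0.05 nM to 10 μM compound.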

Row | SMILES | EC50 [nM]
1 | C[C@H](CCCCNC(=O)NC[C@H](O)[C@@H](O)[C@H](O)[C@H](O)CO)c1ccc(Cl)c(COC2(c3cnccc3-c3ccccc3OC3CC3)CC2)c1 (single isomer, unassigned) [Compound I-273] | < 100
2 | O=S(=O)(c1ccc(Cl)c(COC2(c3cnccc3-c3ccccc3OC3CC3)CC2)c1)N1CCc2nc(O)ccc2C1 [Compound I-734, 6-[[4-chloro-3-([1-[4-(2-cyclopropoxyphenyl)pyridin-3-yl]cyclopropoxy]methyl)benzene]sulfonyl]-5,6,7,8-tetrahydro-1,6-naphthyridin-2-ol] | < 100
3 | CN(C)C(=O)CN(C[C@H](O)[C@@H](O)[C@H](O)[C@H](O)CO)C(=O)CCCCc1cc(Cl)c(COC2(c3cnccc3-c3ccccc3OC3CC3)CC2)cc1Cl [Compound I-221, 5-[2,5-dichloro-4-({1-[4-(2-cyclopropoxyphenyl)pyridin-3-yl]cyclopropoxy}methyl)phenyl]-N-[(dimethylcarbamoyl)methyl]-N-[(2S,3R,4R,5R)-2,3,4,5,6-pentahydroxyhexyl]pentanamide] | < 100
4 | Cc1cc(COC2(c3cnccc3-c3ccccc3OC3CC3)CC2)c(Cl)cc1CCCCNC(=O)N(CCO)C[C@H](O)[C@@H](O)[C@H](O)[C@H](O)CO [Compound I-107, 1-{4-[5-chloro-4-({1-[4-(2-cyclopropoxyphenyl)pyridin-3-yl]cyclopropoxy}methyl)-2-methylphenyl]butyl}-3-(2-hydroxyethyl)-3-[(2S,3R,4R,5R)-2,3,4,5,6-pentahydroxyhexyl]urea] | < 100
5 | Cc1ccc(C)c(CNC2(c3cnccc3-c3ccccc3OC3CC3)CC2)c1 [Compound I-24, 1-[4-(2-cyclopropoxyphenyl)pyridin-3-yl]-N-[(2,5-dimethylphenyl)methyl]cyclopropan-1-amine] | < 100
6 | C[C@@H](CCCCN)c1ccc(Cl)c(COC2(c3cnccc3-c3ccccc3OC3CC3)CC2)c1 (single isomer, unassigned) [Compound I-246] | 126 to 1000
7 | O=C(CCCCc1cc(Cl)c(COC2(c3cnccc3-c3ccccc3OC3CC3)CC2)cc1Cl)N[C@@H](CO)[C@@H](O)[C@H](O)[C@H](O)CO [Compound I-156, 5-[2,5-dichloro-4-({1-[4-(2-cyclopropoxyphenyl)pyridin-3-yl]cyclopropoxy}methyl)phenyl]-N-[(2S,3R,4S,5R)-1,3,4,5,6-pentahydroxyhexan-2-yl]pentanamide] | < 100
8 | COC[C@@H](O)CN(C[C@H](O)[C@@H](O)[C@H](O)[C@H](O)CO)C(=O)CCCCc1cc(Cl)c(COC2(c3cnccc3-c3ccccc3OC3CC3)CC2)cc1Cl [Compound I-125, 5-[2,5-dichloro-4-({1-[4-(2-cyclopropoxyphenyl)pyridin-3-yl]cyclopropoxy}methyl)phenyl]-N-[(2S)-2-hydroxy-3-methoxypropyl]-N-[(2S,3R,4R,5R)-2,3,4,5,6-pentahydroxyhexyl]pentanamide] | < 100
9 | Clc1cc(Cl)cc(COC2(c3cnccc3-c3ccccc3OC3CC3)CC2)c1 [Compound I-56, 4-(2-cyclopropoxyphenyl)-3-{1-[(3,5-dichlorophenyl)methoxy]cyclopropyl}pyridine] | 1260 to 10000
10 | CNC(=O)CN(C[C@H](O)[C@@H](O)[C@H](O)[C@H](O)CO)C(=O)CCCCc1cc(Cl)c(COC2(c3cnccc3-c3ccccc3OC3CC3)CC2)cc1Cl (stereo in doubt) [Compound I-219, 5-[2,5-dichloro-4-({1-[4-(2-cyclopropoxyphenyl)pyridin-3-yl]cyclopropoxy}methyl)phenyl]-N-[(methylcarbamoyl)methyl]-N-[(2S,3R,4R,5R)-2,3,4,5,6-pentahydroxyhexyl]pentanamide] | < 100
11 | CCc1ccc(SCCCC(=O)N(C)C[C@H](O)[C@@H](O)[C@H](O)[C@H](O)CO)cc1COC1(c2cnccc2-c2ccccc2OC2CC2)CC1 [Compound I-691, 4-{[3-({1-[4-(2-cyclopropoxyphenyl)pyridin-3-yl]cyclopropoxy}methyl)-4-ethylphenyl]sulfanyl}-N-methyl-N-[(2S,3R,4R,5R)-2,3,4,5,6-pentahydroxyhexyl]butanamide] | 126 to 1000
12 | O=C(O)CCCC(=O)N(CCCCc1cc(Cl)c(CNC2(c3cnccc3-c3ccccc3OC3CC3)CC2)cc1Cl)C[C@H](O)[C@@H](O)[C@H](O)[C@H](O)CO [Compound I-63, 4-[(4-[2,5-dichloro-4-[([1-[4-(2-cyclopropoxyphenyl)pyridin-3-yl]cyclopropyl]amino)methyl]phenyl]butyl) [(2S,3R,4R,5R)-2,3,4,5,6-pentahydroxyhexyl]carbamoyl]butanoic acid] | 126 to 1000
13 | FC(F)(F)c1ccc(Cl)cc1COC1(c2cnccc2-c2ccccc2OC2CC2)CC1 [Compound I-51, 3-(1-{[5-chloro-2-(trifluoromethyl)phenyl]methoxy}cyclopropyl)-4-(2-cyclopropoxyphenyl) pyridine] | 126 to 1000
14 | O=C(N[C@@H](CO)[C@@H](O)[C@H](O)[C@H](O)CO)c1cccc(OCc2ccc(Cl)c(COC3(c4cnccc4-c4ccccc4OC4CC4)CC3)c2)c1 [Compound I-756, 3-((4-chloro-3-((1-(4-(2-cyclopropoxyphenyl)pyridin-3-yl)cyclopropoxy)methyl)benzyl)oxy)-N-((2S,3R,4S,5R)-1,3,4,5,6-pentahydroxyhexan-2-yl)benzamide] | 126 to 1000
15 | CS(=O)(=O)NCCN(CCCSc1ccc(Cl)c(CNC2(c3cnccc3-c3ccccc3OC3CC3)CC2)c1)C(=O)[C@@H](O)[C@@H](O)[C@H](O)[C@@H](O)CO [Compound I-585, (2S,3S,4R,5S)-N-[3-({4-chloro-3-[({1-[4-(2-cyclopropoxyphenyl)pyridin-3-yl]cyclopropyl}amino)methyl]phenyl}sulfanyl)propyl]-2,3,4,5,6-pentahydroxy-N-(2-methanesulfonamidoethyl) hexanamide] | < 100
16 | O=C(O)COCC(=O)N(CCCCc1cc(Cl)c(COC2(c3cnccc3-c3ccccc3OC3CC3)CC2)cc1Cl)C[C@H](O)[C@@H](O)[C@H](O)[C@H](O)CO (stereo in doubt) [Compound I-186, 2-[({4-[2,5-dichloro-4-({1-[4-(2-cyclopropoxyphenyl)pyridin-3-yl]cyclopropoxy}methyl)phenyl]butyl}[(2S,3R,4R,5R)-2,3,4,5,6-pentahydroxyhexyl]carbamoyl)methoxy]acetic acid] | 126 to 1000
17 | CNC(=O)N(CCCCc1cc(Cl)c(COC2(c3cnccc3-c3ccccc3OC3CC3)CC2)cc1Cl)C[C@H](O)[C@@H](O)[C@H](O)[C@H](O)CO [Compound I-79] | < 100
18 | CN(C[C@H](O)[C@@H](O)[C@H](O)[C@H](O)CO)C(=O)NCCCCc1cc(Cl)c(CNC2(c3cnccc3-c3ccccc3OC3COC3)CC2)cc1Cl [Compound I-175, 1-[4-(2,5-dichloro-4-{[(1-{4-[2-(oxetan-3-yloxy)phenyl]pyridin-3-yl}cyclopropyl)amino]methyl}phenyl)butyl]-3-methyl-3-[(2S,3R,4R,5R)-2,3,4,5,6-pentahydroxyhexyl]urea] | 126 to 1000
19 | O=C([C@@H](O)[C@@H](O)[C@H](O)[C@@H](O)CO)N(CCCSc1ccc(Cl)c(COC2(c3cnccc3-c3ccccc3OC3CC3)CC2)c1)C1CCS(=O)(=O)CC1 [Compound I-556, (2S,3S,4R,5S)-N-(3-{[4-chloro-3-({-[4-(2-cyclopropoxyphenyl)pyridin-3-yl]cyclopropoxy}methyl)phenyl]sulfanyl}propyl)-N-(1,1-dioxo-1λ^6-thian-4-yl)-2,3,4,5,6-pentahydroxyhexanamide] | 126 to 1000
20 | CN(CCCCNC(=O)N[C@@H](CO)[C@@H](O)[C@@H](O)[C@H](O)CO)S(=O)(=O)c1ccc(Cl)c(COC2(c3cnccc3-c3ccccc3OC3CC3)CC2)c1 [Compound I-776, 4-chloro-3-((1-(4-(2-cyclopropoxyphenyl)pyridin-3-yl)cyclopropoxy)methyl)-N-methyl-N-(4-(3-((2S,3R,4R,5R)-1,3,4,5,6-pentahydroxyhexan-2-yl)ureido)butyl)benzenesulfonamide] | < 100
21 | O=C([C@@H](O)[C@@H](O)[C@H](O)[C@@H](O)CO)N(CCCO)CCCCc1cc(Cl)c(COC2(c3cnccc3-c3ccccc3OC3CC3)CC2)cc1Cl [Compound I-217, (2S,3S,4R,5S)-N-{4-[2,5-dichloro-4-({1-[4-(2-cyclopropoxyphenyl)pyridin-3-yl]cyclopropoxy}methyl)phenyl]butyl}-2,3,4,5,6-pentahydroxy-N-(3-hydroxypropyl)hexanamide] | < 100
22 | O=C(NCCCCSc1ccc(Cl)c(COC2(c3cnccc3-c3ccccc3OC3CC3)CC2)c1)NC[C@H](O)[C@@H](O)[C@H](O)[C@H](O)CO [Compound I-621, 1-(4-{[4-chloro-3-({1-[4-(2-cyclopropoxyphenyl)pyridin-3-yl]cyclopropoxy}methyl)phenyl]sulfanyl}butyl)-3-[(2S,3R,4R,5R)-2,3,4,5,6-pentahydroxyhexyl]urea] | < 100
23 | O=C([C@@H](O)[C@@H](O)[C@H](O)[C@@H](O)CO)N(CCCCO)CCCCSc1ccc(Cl)c(COC2(c3cnccc3-c3ccccc3OC3CC3)CC2)c1 [Compound I-513, (2S,3S,4R,5S)-N-(4-{[4-chloro-3-({1-[4-(2-cyclopropoxyphenyl)pyridin-3-yl]cyclopropoxy}methyl)phenyl]sulfanyl}butyl)-2,3,4,5,6-pentahydroxy-N-(4-hydroxybutyl)hexanamide] | < 100
